Results as given in ChEMBL document CHEMBL1123144, “Studies on 4(1H)-quinazolinones. 5. Synthesis and antiinflammatory activity of 4(1H)-quinazolinone derivatives” (J Med Chem, 1985).
Calls of active or inactive are those of the source. No cut-off for these calls is given here.

Assays:
[1] = tested on: Rattus norvegicus; test: Percent inhibition against carrageenan-induced rat paw edema at 50 mg/kg dose administered perorally; 0-10%; assay type: functional; settings: route oral
[2] = tested on: Rattus norvegicus; test: Percent inhibition against carrageenan-induced rat paw edema at 50 mg/kg dose administered perorally; 41-50%; assay type: functional; settings: route oral
[3] = tested on: Mus musculus; test: Number of mice bearing ulcer at dose 45 mg/kg out of 5 mices tested; assay type: functional
[4] = tested on: Mus musculus; test: Toxicity by number of mice dead at dose 500 mg/kg out of 5 mice tested by oral administration route; Value represented as 5/5; assay type: organism-based; parameters: dose 500 mg/kg, route oral; settings: in vivo
[5] = tested on: Rattus norvegicus; test: Anti-inflammatory activity following oral administration; assay type: functional
[6] = tested on: Rattus norvegicus; test: Analgesic activity by oral administration route; assay type: functional
[7] = tested on: Mus musculus; test: Ulcer index by number of mice bearing ulcer at dose 45 mg/kg out of 5 mice tested; assay type: functional
[8] = tested on: Rattus norvegicus; test: Percent inhibition against carrageenan-induced rat paw edema at 50 mg/kg dose administered perorally; 31-40%; assay type: functional; settings: route oral
[9] = tested on: Rattus norvegicus; test: Percent inhibition against carrageenan-induced rat paw edema at 50 mg/kg dose administered perorally; assay type: functional; settings: route oral
[10] = tested on: Mus musculus; test: Toxicity by number of mice dead at dose 500 mg/kg out of 5 mice tested by oral administration route; Value represented as 1/5; assay type: organism-based; parameters: dose 500 mg/kg, route oral; settings: in vivo
[11] = tested on: Mus musculus; test: Ulcer index by number of mice bearing ulcer at dose 60 mg/kg out of 5 mice tested; assay type: functional
[12] = tested on: Mus musculus; test: Number of mice bearing ulcer at dose 60 mg/kg out of 5 mices tested; assay type: functional
[13] = tested on: Rattus norvegicus; test: Percent inhibition against carrageenan-induced rat paw edema at 50 mg/kg dose administered perorally; 21-30%; assay type: functional; settings: route oral
[14] = tested on: Rattus norvegicus; test: Percent inhibition against carrageenan-induced rat paw edema at 50 mg/kg dose administered perorally; 11-20%; assay type: functional; settings: route oral
[15] = tested on: Mus musculus; test: Toxicity by number of mice dead at dose 500 mg/kg out of 5 mice tested by oral administration route; Value represented as 0/5; assay type: organism-based; parameters: dose 500 mg/kg, route oral; settings: in vivo
[16] = tested on: Rattus norvegicus; test: Analgesic activity by oral administration of 200 mg/kg; Not effective; assay type: functional, organism-based; parameters: dose 200 mg/kg
[17] = tested on: Mus musculus; test: Number of mice bearing ulcer at dose 48 mg/kg out of 5 mices tested; assay type: functional
[18] = tested on: Mus musculus; test: Ulcer index by number of mice bearing ulcer at dose 48 mg/kg out of 5 mice tested; assay type: functional
[19] = tested on: Mus musculus; test: Ulcer index by number of mice bearing ulcer at dose 30 mg/kg out of 5 mice tested; assay type: functional
[20] = tested on: Mus musculus; test: Number of mice bearing ulcer at dose 30 mg/kg out of 5 mices tested; assay type: functional
[21] = tested on: Rattus norvegicus; test: Analgesic activity following oral administration at a dose 30 mg/kg; assay type: functional

CC(C)N1c2ccccc2C(=O)NC1c1ccccc1Cl (configuration not stated)
inhibition in vivo at 50 mg/kg [1]: 10%

CC(C)n1c(-c2cccc(Cl)c2)nc(=O)c2ccccc21
inhibition in vivo at 50 mg/kg [2]: 50%

CC(=O)c1ccc2c(c1)c(=O)nc(C(C)C)n2-c1ccccc1
inhibition in vivo at 50 mg/kg [1]: 10%

CC(C)n1c(-c2ccc(Br)cc2)nc(=O)c2ccccc21
inhibition in vivo at 50 mg/kg [2]: 50%

CC(C)n1c(-c2ccc(Cl)cc2)nc(=O)c2ccccc21
No. of mice [3]: 0 | Toxicity [4]: 5 | inhibition in vivo at 50 mg/kg [2]: 50% | ED30 [5]: 15 mg/kg | ED30 [6]: 44 mg/kg | Ulcer Index [7]: 0

CC(C)n1c(-c2ccccc2F)nc(=O)c2ccc(Cl)cc21
inhibition in vivo at 50 mg/kg [8]: 40%

CC(C)n1c(-c2ccccc2F)nc(=O)c2ccccc21
inhibition in vivo at 50 mg/kg [9]: ≥ 51% | Toxicity [10]: 1 | Ulcer Index [11]: 0.1 | No. of mice [12]: 1 | ED30 [5]: 20 mg/kg | ED30 [6]: 65 mg/kg

CC(C)n1c(-c2ccccc2Cl)nc(=O)c2cc(F)ccc21
inhibition in vivo at 50 mg/kg [13]: 30%

COc1ccc2c(c1)c(=O)nc(-c1ccccc1F)n2C(C)C
inhibition in vivo at 50 mg/kg [13]: 30%

CC(C)c1nc(=O)c2ccccc2n1-c1ccccc1C(=O)O
inhibition in vivo at 50 mg/kg [14]: 20%

CC(C)c1nc(=O)c2ccccc2n1-c1ccc(Cl)cc1
inhibition in vivo at 50 mg/kg [9]: ≥ 51%

O=c1nc(C2CC2)n(-c2ccc(Cl)cc2)c2ccccc12
inhibition in vivo at 50 mg/kg [1]: 10%

O=c1nc(C(F)(F)F)n(-c2ccccc2)c2ccccc12
inhibition in vivo at 50 mg/kg [1]: 10%

CC(C)c1nc(=O)c2ccccc2n1-c1ccccc1C(N)=O
inhibition in vivo at 50 mg/kg [1]: 10%

COc1ccccc1-c1nc(=O)c2ccccc2n1C(C)C
inhibition in vivo at 50 mg/kg [1]: 10%

O=c1nc(C2CCCCCC2)n(-c2ccccc2)c2ccccc12
inhibition in vivo at 50 mg/kg [1]: 10%

COC(=O)CCc1nc(=O)c2ccccc2n1-c1ccccc1
inhibition in vivo at 50 mg/kg [1]: 10%

CC(C)n1c(-c2ccccc2Cl)nc(=O)c2ccccc21
inhibition in vivo at 50 mg/kg [2]: 50%

CC(C)n1c(-c2ccccc2)nc2ccccc2c1=O
inhibition in vivo at 50 mg/kg [13]: 30%

O=c1nc(CCl)n(-c2ccccc2)c2ccccc12
inhibition in vivo at 50 mg/kg [1]: 10%

CC(C)n1c(-c2ccc([N+](=O)[O-])cc2)nc(=O)c2ccccc21
inhibition in vivo at 50 mg/kg [1]: 10%

CCN(CC)Cc1nc(=O)c2ccccc2n1-c1ccccc1
inhibition in vivo at 50 mg/kg [1]: 10%

CC(C)c1nc2ccccc2c(=O)n1-c1ccccc1
inhibition in vivo at 50 mg/kg [13]: 30%

COc1cccc2c1c(=O)nc(-c1ccccc1)n2C(C)C
inhibition in vivo at 50 mg/kg [14]: 20%

CC(C)n1c(-c2ccc(F)cc2)nc(=O)c2cc(Cl)ccc21
inhibition in vivo at 50 mg/kg [2]: 50% | ED30 [5]: 18 mg/kg | ED30 [6]: 100 mg/kg

CC(C)n1c(-c2ccc(F)cc2)nc(=O)c2ccccc21
inhibition in vivo at 50 mg/kg [2]: 50%

O=c1nc(C2CC2)n(-c2ccc([N+](=O)[O-])cc2)c2ccccc12
inhibition in vivo at 50 mg/kg [1]: 10%

O=c1nc(C2CC2)n(-c2ccccc2)c2ccccc12
inhibition in vivo at 50 mg/kg [9]: ≥ 51%

O=c1nc(C2CC2)n(-c2cccc(C(F)(F)F)c2)c2ccccc12
inhibition in vivo at 50 mg/kg [1]: 10%

CC(C)c1nc(=O)c2ccccc2n1-c1ccc(N)cc1
inhibition in vivo at 50 mg/kg [13]: 30%

Cc1ccccc1-n1c(C(C)C)nc(=O)c2ccccc21
inhibition in vivo at 50 mg/kg [8]: 40%

CC(C)n1c(-c2ccccc2Br)nc(=O)c2ccccc21
inhibition in vivo at 50 mg/kg [1]: 10%

CC(C)n1c(-c2ccccc2)nc(=O)c2cc(F)ccc21
inhibition in vivo at 50 mg/kg [8]: 40%

CC(C)c1nc(=O)c2ccccc2n1-c1cccc(C(F)(F)F)c1
inhibition in vivo at 50 mg/kg [13]: 30%

Cc1ccc2c(c1)c(=O)nc(C(C)C)n2-c1ccccc1
inhibition in vivo at 50 mg/kg [13]: 30%

CC(C)n1c(-c2ccc(Cl)cc2)nc(=O)c2cc(Cl)ccc21
inhibition in vivo at 50 mg/kg [1]: 10%

Cc1nc(=O)c2ccccc2n1-c1ccccc1
inhibition in vivo at 50 mg/kg [1]: 10%

CC(C)n1c(-c2ccccc2)nc(=O)c2ccc(Cl)cc21
Toxicity [15]: 0 | ED30 [16]: inactive | No. of mice [17]: 3 | Ulcer Index [18]: 0.2 | inhibition in vivo at 50 mg/kg [2]: 50% | ED30 [5]: 16 mg/kg

CCOC(=O)C(C)c1nc(=O)c2ccccc2n1-c1ccccc1 (configuration not stated)
inhibition in vivo at 50 mg/kg [13]: 30%

O=C(O)CCc1nc(=O)c2ccccc2n1-c1ccccc1
inhibition in vivo at 50 mg/kg [1]: 10%

CC(C)n1c(-c2ccccc2)nc(=O)c2cc(Cl)ccc21
inhibition in vivo at 50 mg/kg [2]: 50%

CC(C)c1nc(=O)n(-c2ccccc2)c2ccccc12
inhibition in vivo at 50 mg/kg [1]: 10%

Cc1ccc2c(-c3ccccc3)nc(=O)n(C(C)C)c2c1 [PROQUAZONE]
Toxicity [15]: 0 | Ulcer Index [19]: 0.12 | No. of mice [20]: 4 | inhibition in vivo at 50 mg/kg [2]: 50% | ED30 [5]: 10 mg/kg | ED30 [6]: 20 mg/kg

CC(C)n1c(-c2ccccc2)nc(=O)c2c(Cl)cccc21
inhibition in vivo at 50 mg/kg [14]: 20%

Cc1ccc2c(=O)nc(-c3ccccc3)n(C(C)C)c2c1
inhibition in vivo at 50 mg/kg [1]: 10%

O=c1nc(CCl)n(-c2cccc(C(F)(F)F)c2)c2ccccc12
inhibition in vivo at 50 mg/kg [1]: 10%

Cc1nc(=O)c2ccccc2n1-c1cccc(C(F)(F)F)c1
inhibition in vivo at 50 mg/kg [1]: 10%

CC(C)n1c(-c2ccccc2Cl)nc(=O)c2cc(Cl)ccc21
inhibition in vivo at 50 mg/kg [2]: 50%

CC(C)c1nc(=O)c2ccccc2n1-c1ccccc1Cl
inhibition in vivo at 50 mg/kg [14]: 20%

CC(C)n1c(-c2ccccc2)nc(=O)c2cc(Br)ccc21
inhibition in vivo at 50 mg/kg [13]: 30%

O=c1nc(C2CCC2)n(-c2ccccc2)c2ccccc12
inhibition in vivo at 50 mg/kg [13]: 30%

CC(C)c1nc(=O)c2ccc([N+](=O)[O-])cc2n1-c1ccccc1
inhibition in vivo at 50 mg/kg [1]: 10%

CC(C)c1nc(=O)c2cc(CC(=O)O)ccc2n1-c1ccccc1
inhibition in vivo at 50 mg/kg [1]: 10%

CC(C)n1c(-c2ccccc2F)nc(=O)c2cc(Cl)ccc21
inhibition in vivo at 50 mg/kg [14]: 20%

CC(C)Cc1nc(=O)c2ccccc2n1-c1ccccc1
inhibition in vivo at 50 mg/kg [13]: 30%

CCCCc1nc(=O)c2ccccc2n1-c1ccccc1
inhibition in vivo at 50 mg/kg [1]: 10%

CCN(CC)Cc1nc(=O)c2ccccc2n1-c1cccc(C(F)(F)F)c1
inhibition in vivo at 50 mg/kg [13]: 30%

CC(C)c1nc(=O)c2ccc(N)cc2n1-c1ccccc1
inhibition in vivo at 50 mg/kg [14]: 20%

CC(C)c1nc(=O)c2ccccc2n1-c1ccccc1
ED30 [21]: 70 mg/kg | inhibition in vivo at 50 mg/kg [8]: 40% | ED30 [5]: 30 mg/kg

CC(C)c1nc(=O)c2ccccc2n1-c1ccc([N+](=O)[O-])cc1
inhibition in vivo at 50 mg/kg [8]: 40%

CN(C)c1nc(=O)c2ccccc2n1-c1ccccc1
inhibition in vivo at 50 mg/kg [1]: 10%

CC(C)C1NC(=O)c2ccccc2N1c1ccccc1 (configuration not stated)
inhibition in vivo at 50 mg/kg [1]: 10%

O=c1nc(C2CCC2)n(-c2ccc(Cl)cc2)c2ccccc12
inhibition in vivo at 50 mg/kg [13]: 30%

O=c1nc(C2CCC2)n(-c2ccc([N+](=O)[O-])cc2)c2ccccc12
inhibition in vivo at 50 mg/kg [1]: 10%

CC(C)n1c(-c2ccccc2)nc(=O)c2ccccc21
inhibition in vivo at 50 mg/kg [2]: 50%

CC(C)n1c(-c2ccc(N)cc2)nc(=O)c2ccccc21
inhibition in vivo at 50 mg/kg [1]: 10%

Cc1ccc2c(=O)nc(C(C)C)n(-c3ccccc3)c2c1
inhibition in vivo at 50 mg/kg [13]: 30%

CC(C)c1nc(=O)c2ccc(Cl)cc2n1-c1ccccc1
inhibition in vivo at 50 mg/kg [9]: ≥ 51% | ED30 [5]: 21 mg/kg | ED30 [6]: 80 mg/kg

CC(=O)c1ccc(-n2c(C(C)C)nc(=O)c3ccccc32)cc1
inhibition in vivo at 50 mg/kg [13]: 30%

O=c1nc(C2CC2)n(-c2ccc(F)cc2)c2ccccc12
inhibition in vivo at 50 mg/kg [9]: ≥ 51%

CC(C)n1c(-c2ccc(Cl)c(Cl)c2)nc(=O)c2ccccc21
inhibition in vivo at 50 mg/kg [2]: 50%

CC(C)n1c(-c2ccc(F)cc2)nc(=O)c2ccc(Cl)cc21
inhibition in vivo at 50 mg/kg [13]: 30%

CC(C)n1c(-c2ccc(Cl)cc2)nc(=O)c2ccc(Cl)cc21
inhibition in vivo at 50 mg/kg [13]: 30%

Cc1ccc(-c2nc(=O)c3ccccc3n2C(C)C)cc1
inhibition in vivo at 50 mg/kg [1]: 10%

CC(C)(C)c1nc(=O)c2ccccc2n1-c1ccccc1
inhibition in vivo at 50 mg/kg [1]: 10%

COc1ccc2c(c1)c(=O)nc(C(C)C)n2-c1ccccc1
inhibition in vivo at 50 mg/kg [9]: ≥ 51%

COc1ccc2c(c1)c(=O)nc(-c1ccccc1)n2C(C)C
inhibition in vivo at 50 mg/kg [8]: 40%

CC(C)c1nc(=O)c2ccccc2n1-c1ccc(F)cc1
inhibition in vivo at 50 mg/kg [2]: 50% | ED30 [5]: 30 mg/kg | ED30 [6]: 76 mg/kg

CC(C)c1nc(=O)c2ccccc2n1-c1ccc(CC(=O)O)cc1
inhibition in vivo at 50 mg/kg [14]: 20%
